The nature of data set [1]: Complex formation with cell wall precursors (TLC mobility shift), lipid II. It counts as binding. As for the experimental part:
Binding of malacidin to C55-P and lipid II was evaluated by incubating 1 nmol of each purified precursor with 0.5 nmol of malacidin or daptomycin in 100 mM Tris-HCl, pH 7.5, 0.1% Triton X-100, 13 mM MgCl2, and with or without 25 mM CaCl2, for 60 min at 37° C. Subsequently, the mixture was extracted twice with n-BuOH/6 M pyridinium acetate buffer, pH 4.2 (3:1, v/v). The butanol fraction was evaporated and the residue was dissolved in CHCl3/methanol (1:1, v/v). The resuspension was analysed for the loss of unbound malacidin or daptomycin to a complex by TLC analysis using chloroform/methanol/water/ammonia (88:48:10:1, v/v/v/v) as the solvent and detection by 254/366 nm visualization. Experiments were performed with biological replicates.

The next data set has as its system S. aureus NRS140. In words: MIC assay, S. aureus NRS140. It counts as cell-based, Staphylococcus aureus. As to conditions: β-lactams. The method, then:
(§1) MIC assays were performed in duplicate in 96-well microtiter plates on the basis of the protocol recommended by the Clinical and Laboratory Standards Institute (Cockerill, 2012, Clinical and Laboratory Standards Institute). All presented data are the average of at least three independent assays. Stock solutions of malacidin or daptomycin (2 mg ml^−1 in H2O) were added to the first well in a row and serially diluted (twofold per transfer) across the microtiter plate. CaCl2 was supplemented to media at a final concentration of 15 mM and fetal bovine serum (ATCC) was added to media (1:10) to test the effect of serum. Overnight cultures of bacteria were diluted 5,000-fold, and 50 μl was used as an inoculum in each well. MIC values were determined by visual inspection after 18 h incubation (30° C., static growth). For the enhanced calcium titration experiments, standard MIC assays were performed with methicillin-resistant Staphylococcus aureus (MRSA) PFGE strain type USA300 in media supplemented with CaCl2 at: 25.0, 18.8, 14.1, 7.03, 3.52, 2.50, 1.76, 0.880, 0.440, 0.250 and 0 mM. To assess the effects of monovalent and divalent cations on malacidin activity, standard MIC assays were performed with MRSA USA300 in media supplemented with 15 mM CaCl2, MgCl2, MnCl2, ZnCl2, SrCl2, NaCl and KCl. To evaluate the effects of pulmonary surfactants on activity against a community-acquired pneumonia-causing pathogen, standard MIC assays were performed with Streptococcus pneumoniae TCH8431 in media supplemented with both 15 mM CaCl1 and Survanta (beractant) at a final concentration of 5, 1, 0.5, 0.25 or 0% (volume/volume (v/v) percent).

Data set [2] concerns Lactobacillus rhamnosus NCTC 13031. In words: MIC assay, L. rhamnosus. It is filed as cell-based. The method, then: as §1, with “To evaluate the effects of pulmonary surfactants on activity against a community-acquired pneumonia-causing pathogen, standard MIC assays were performed with Streptococcus pneumoniae TCH8431 in media supplemented with both 15 mM CaCl1 and Survanta (beractant) at a final concentration of 5, 1, 0.5, 0.25 or 0% (volume/volume (v/v) percent).” left out

The test system of the next data set is MRSA USA300. In words: Selection for malacidin-resistant mutants. Particulars: 20 days of exposure to 0.5×MIC, 15 mM calcium. It is filed as cell-based, Staphylococcus aureus. As for the experimental part:
To select for resistant mutants, a single MRSA USA300 colony from a freshly struck plate was inoculated into LB media and grown overnight at 37° C. The saturated overnight culture was diluted 100-fold, supplemented with a sub-lethal dose (0.5×MIC) of malacidin A, vancomycin, daptomycin or rifamycin and 15 mM calcium. Two-hundred-microlitre aliquots were then distributed into microtiter plate wells. The next day, 3 μl of culture from each well was used to inoculate 200 μl of calcium-supplemented media (15 mM calcium) with fresh antibiotic at 0.5× and 4×MIC. This process was repeated for 20 days. […] This was repeated over the course of the experiment to assess fold change in MIC at day 0 to day 20.

For data set [3], the system named is red blood cell (5% sheep blood agar plates). It is filed as cell-based. As for the experimental part:
Cytotoxicity against human cell lines was tested using an ATP release assay, CelITiter-Glo (Promega), according to the manufacturer's instructions. HEK293 cells (293FT, Thermo Fisher Scientific, no. R700-07) and MRC5 cells (ATCC CCL-171) were grown in complete DMEM media supplemented with 10% FBS, and were inspected visually for authentication and tested for mycoplasma contamination using a MycoAlert detection kit (Lonza). Cells were grown to confluence, trypsinized, counted and plated in 384-well cell culture plates at an appropriate density (2,500 cells per well for HEK293 and 1000 cells per well for MRC5). The test compound was added 24 h later in the presence of calcium, and viability was determined after 4.5 h of incubation. Experiments were performed with biological replicates. Haemolytic activity was evaluated by a red blood cell disc diffusion assay. Twenty-microlitre stocks of malacidin A and Triton X-100 were infused on filter discs, dried completely and then overlaid on 5% sheep blood agar plates (Hardy Diagnostics). The plates were incubated for 24 h at 20° C., and then checked for lysis.

Experimental findings from patent publication US11472843B2, “Malacidins and methods of use” (The Rockefeller University, priority 2017, dated 2022) are described below.

As usually defined, the MIC is the lowest concentration found to suppress growth. Higher therefore signals weaker potency. As for malacidin A, in data set [1] (1 nmol precursor, 0.5 nmol antibiotic), the “Lipid-II-binding activity (TLC mobility shift)” value was “lipid-II-dependent disappearance of the malacidin band”. Besides, the “Calcium dependence of the interaction with lipid II” value in data set [1] (with or without 25 mM CaCl2) is reported as “calcium-dependent”. The MIC was 0.4-0.8 μg m1^−1 with S. aureus NRS140 (S. aureus NRS140, erythromycin, spectinomycin, 15 mM CaCl2); 0.4 to 2.0 µg/mL in the data set with S. aureus NRS140 (Staphylococcus aureus NRS140, Erythromycin, Spectinomycin); 0.1-0.2 μg m1^−1 in data set [2] (L. rhamnosus, 15 mM CaCl2); 0.1 to 0.2 µg/mL in data set [2] (Lactobacillus rhamnosus NCTC 13031). Moreover, in the data set with MRSA USA300, the “Detection of resistant S. aureus after repeated exposure” value is on record as “not detected”. Further, the Haemolytic activity result in data set [3] is on record as “no hemolytic effects”.
